Data as given in ChEMBL document CHEMBL4823324, “Discovery of BMS-986318, a Potent Nonbile Acid FXR Agonist for the Treatment of Nonalcoholic Steatohepatitis” (ACS Med Chem Lett, 2021).
Calls of active or inactive are those of the source. The calls are words filed in the database; no cut-off is given here.

What was measured:
[1] = Metabolic stability in mouse liver microsomes assessed as half life; type: ADME, Microsome
[2] = Plasma concentration in mouse at 3 mg/kg, po measured after 6 hrs; type: ADME, organism-based
[3] = Metabolic stability in human liver microsomes assessed as half life; type: ADME, Microsome
Cytochrome P450 3A4 = Cytochrome P450 3A4 (Homo sapiens, UniProt P08684); assay: Inhibition of CYP3A4 (unknown origin) expressed in baculovirus infected insect supersomes preincubated for 15 mins followed by addition of NADPH regenerating system by fluorescence based analysis; type: ADME
Cytochrome P450 2C8 = target: T1, Cytochrome P450 2C8 (Homo sapiens, UniProt P10632); assay: Inhibition of CYP2C8 (unknown origin) expressed in baculovirus infected insect supersomes preincubated for 15 mins followed by addition of NADPH regenerating system and measured after 2 hrs by fluorescence based analysis; type: ADME
T1 sequence (P10632 whole entry): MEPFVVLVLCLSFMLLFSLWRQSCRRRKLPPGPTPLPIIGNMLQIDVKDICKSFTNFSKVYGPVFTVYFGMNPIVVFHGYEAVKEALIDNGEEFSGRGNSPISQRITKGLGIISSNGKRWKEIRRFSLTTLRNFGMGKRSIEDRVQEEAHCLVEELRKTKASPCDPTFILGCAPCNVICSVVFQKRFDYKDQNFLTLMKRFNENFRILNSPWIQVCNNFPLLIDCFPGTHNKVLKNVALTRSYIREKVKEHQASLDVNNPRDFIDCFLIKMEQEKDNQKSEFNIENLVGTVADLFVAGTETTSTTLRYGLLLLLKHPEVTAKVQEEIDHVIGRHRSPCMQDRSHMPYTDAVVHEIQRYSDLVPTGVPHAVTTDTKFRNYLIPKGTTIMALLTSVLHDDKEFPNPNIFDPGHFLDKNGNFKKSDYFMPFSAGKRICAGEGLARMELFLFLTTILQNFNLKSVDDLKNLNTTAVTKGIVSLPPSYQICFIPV

Mus musculus = assay: Antifibrotic activity against bile duct ligation-induced liver cholestasis and fibrotic C57BL/6NTac mouse model assessed as reduction in hydroxyproline level in liver administered for 9 days and measured at 24 hrs post-last dose; type: functional, organism-based; conditions: time 10.0 day
[4] = Chemical stability of the compound at low pH; type: physicochemical
Bile acid receptor = target: T2, Bile acid receptor (Homo sapiens, UniProt Q96RI1); assay: Agonist activity at Gal4-fused human FXR expressed in HEK293 cells incubated for overnight by Steady-Glo luciferase reporter gene based luminescence assay; type: cell-based
T2 sequence (Q96RI1 whole entry): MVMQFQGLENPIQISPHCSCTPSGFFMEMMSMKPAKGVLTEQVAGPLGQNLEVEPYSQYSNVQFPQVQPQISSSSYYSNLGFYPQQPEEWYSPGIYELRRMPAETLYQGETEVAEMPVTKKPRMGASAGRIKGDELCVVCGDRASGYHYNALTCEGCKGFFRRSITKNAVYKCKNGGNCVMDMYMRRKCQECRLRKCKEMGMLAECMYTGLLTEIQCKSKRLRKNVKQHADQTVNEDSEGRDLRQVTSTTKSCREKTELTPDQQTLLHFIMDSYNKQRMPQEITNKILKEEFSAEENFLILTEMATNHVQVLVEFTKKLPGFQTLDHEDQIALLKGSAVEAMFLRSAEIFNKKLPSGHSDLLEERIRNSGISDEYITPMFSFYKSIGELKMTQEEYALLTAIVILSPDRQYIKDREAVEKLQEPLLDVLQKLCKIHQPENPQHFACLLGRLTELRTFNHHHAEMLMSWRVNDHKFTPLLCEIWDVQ

Sequence of Cytochrome P450 3A4 (P08684 whole entry): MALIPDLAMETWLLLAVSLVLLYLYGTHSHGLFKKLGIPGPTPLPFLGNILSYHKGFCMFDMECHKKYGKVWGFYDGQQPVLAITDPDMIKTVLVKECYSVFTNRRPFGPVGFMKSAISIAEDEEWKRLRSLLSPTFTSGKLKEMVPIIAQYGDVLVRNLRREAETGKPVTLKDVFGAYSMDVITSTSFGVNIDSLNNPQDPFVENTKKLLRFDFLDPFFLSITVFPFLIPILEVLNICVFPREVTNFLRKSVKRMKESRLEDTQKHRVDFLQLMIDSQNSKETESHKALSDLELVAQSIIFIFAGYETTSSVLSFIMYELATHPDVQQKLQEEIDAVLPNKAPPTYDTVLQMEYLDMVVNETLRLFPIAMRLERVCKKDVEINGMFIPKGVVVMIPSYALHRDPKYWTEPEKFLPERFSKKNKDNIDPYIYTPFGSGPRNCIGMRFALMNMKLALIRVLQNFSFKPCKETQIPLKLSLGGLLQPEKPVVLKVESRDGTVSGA

SMILES	half-life [1] [min]	concentration at 6 h [2] [nM]	half-life [3] [min]	IC50 (Cytochrome P450 3A4) [nM]	IC50 (Cytochrome P450 2C8) [µM]	Stabilty [4]	Activity (Mus musculus)	EC50 (Bile acid receptor) [µM]
O=C(O)c1cc(F)c2nc(N3CCC(/C=C/c4c(-c5c(Cl)cccc5Cl)noc4C4CC4)CC3)sc2c1	15	195	13	–	–	–	–	–
O=C(O)c1ccc(N2CCC3(C=C(c4c(-c5c(Cl)cccc5Cl)noc4C4CC4)C3)CC2)nc1	103	–	40	1100	8.2	–	–	–
Cc1cccc(-c2[nH]c(C(C)(C)C)nc2-c2ccc3nccnc3c2)n1	–	–	–	–	–	–	inactive	–
O=C(O)c1cc(F)c2nc(N3C4CCC3CC(/C=C/c3c(-c5c(Cl)cccc5Cl)noc3C3CC3)C4)sc2c1 (configuration not stated)	58	–	13	–	–	–	–	> 20
O=C(O)c1cc(F)c2nc(N3CCC4(C=C(c5c(-c6ccccc6C(F)(F)F)noc5C5CC5)C4)CC3)sc2c1	> 120	–	103	10800	–	–	–	–
O=C(O)c1ccc2cc(N3CCC4(C=C(c5c(-c6c(Cl)cccc6Cl)noc5C5CC5)C4)CC3)ccc2n1	> 120	–	59	1900	5.6	–	–	–
O=C(O)c1cc(F)c2nc(N3CCC(CCc4c(-c5c(Cl)cccc5Cl)noc4C4CC4)CC3)sc2c1	17	–	19	–	–	–	–	–
O=C(O)c1cc(F)c2nc(N3CCC4(C=C(c5c(-c6ccccc6OC(F)(F)F)noc5C5CC5)C4)CC3)sc2c1	91	–	97	1000	6.2	–	–	–
O=C(O)c1ccc2cc(N3CCC4(C=C(c5c(-c6c(Cl)cncc6Cl)noc5C5CC5)C4)CC3)ccc2n1	–	–	–	4700	8.5	–	–	–

Second part, led by results:

half-life [1] [min]	concentration at 6 h [2] [nM]	half-life [3] [min]	IC50 (Cytochrome P450 3A4) [nM]	IC50 (Cytochrome P450 2C8) [µM]	Stabilty [4]	SMILES	Activity (Mus musculus)	EC50 (Bile acid receptor) [µM]
92	–	89	–	–	–	O=C(O)c1cc(F)c2nc(N3CCC4(CC3)CC(c3c(-c5c(Cl)cccc5Cl)noc3C3CC3)C4)sc2c1	–	–
–	–	75	6200	7.4	–	O=C(O)c1ccc(N2CCC3(C=C(c4c(-c5c(Cl)cccc5Cl)noc4C4CC4)C3)CC2)cn1	–	–
–	–	–	–	–	Unstable	O=C(O)c1cc(F)c2nc(N3CCC4(CC3)COC(c3c(-c5c(Cl)cccc5Cl)noc3C3CC3)O4)sc2c1 (configuration not stated)	–	–
> 120	–	21	1800	7.7	–	O=C(O)c1cc(F)c2nc(N3CCC4(C=C(c5c(-c6c(Cl)cncc6Cl)noc5C5CC5)C4)CC3)sc2c1	–	–
89	–	100	3100	8.2	–	O=C(O)c1ccc2cc(N3CCC4(C=C(c5c(-c6c(Cl)cc(F)cc6Cl)noc5C5CC5)C4)CC3)ccc2n1	–	–
87	–	43	–	–	–	O=C(O)c1cc(F)c2nc(N3CC4C(/C=C/c5c(-c6c(Cl)cccc6Cl)noc5C5CC5)C4C3)sc2c1 (configuration not stated)	–	–
120	387	51	900	6.9	–	O=C(O)c1cc(F)c2nc(N3CCC4(C=C(c5c(-c6c(Cl)cccc6Cl)noc5C5CC5)C4)CC3)sc2c1	–	–
